From publication PMC11378297, “Discovery and Profiling of New Multimodal Phenylglycinamide Derivatives as Potent Antiseizure and Antinociceptive Drug Candidates” (ACS Chemical Neuroscience, 2024)
Where two headings read alike, the source gives them in different places.

Assays:
[1] = tested on: 6 Hz (44 mA) seizures, mice; assay: 6 Hz (44 mA) seizure test; type: in vivo; conditions: Mus musculus, ip, pretreatment time 0.5 h
Excerpt: Both the aforementioned parameters (ED50 and TD50) enabled the calculation of protective indexes (PIs), which reflect the comparative the benefit–risk ratio of these experimental therapeutic agents.
Four mice per group were randomly assigned to each experimental group in the initial screening experiments (each mouse was used just once). Four groups, each with eight animals, received injections of different doses of the investigated substances in order to determine the ED50 or TD50 values. The PIs for the compounds investigated and reference ASMs were calculated by dividing the TD50 value, as determined in the chimney test by the respective ED50 value, as determined in the MES, scPTZ, or 6 Hz (32 mA or 44 mA) tests (PI = TD50/ED50). The PIs are a measure of the potential therapeutic window of the tested agent.
All substances were suspended in Tween 80 (1% aqueous solution) and administered i.p. as a single injection at a volume of 10 mL/kg. On each day of experimentation, fresh solutions were prepared.

[2] = molecular target: T1, Voltage-Gated Sodium channel hNav1.1 (Homo sapiens, UniProt P35498); assay: human sodium ion channel cell based automated patch clamp assay, hNav1.1
T1 construct: Eurofins Discovery (St. Charles, MO, USA)
Procedure: (§1) Therefore, as a part of the more detailed functional characterization using automated patch clamp method, we tested the influence of (R)-32 on sodium currents mediated by several Navx channels comprising 5 different human subunits, namely, Nav1.1, Nav1.2, Nav1.3, Nav1.6, and Nav1.7, which are involved in both seizure and/or pain modulation.[74],[80],[81] As summarized in Tables S4–S8, (R)-32 starting from 10 μM effectively and in concentration-dependent manner decreased sodium currents mediated by all aforementioned sodium channel subunits. Furthermore, (R)-32 appeared to bind exclusively to sodium channels that are in an inactivated state (see pulse 2 in Tables S4–S8), but not to the channels that are in an open state (pulse 1) (for additional details, see Supporting Information).
(§2) Human sodium ion channels cell based automated patch clamp assay
(§3) Human sodium ion channels cell based automated patch clamp assays: sodium channels exist in, a) a resting or closed state at -120 mV, b) a transient open state that inactivates to c) inactivated state at -10 mV. Sodium current inhibition within 1-2 ms of channel opening at 0 mV is open channel inhibition (pulse 1). In order to completely inactivate the sodium channels and facilitate inactivated state-dependent binding of the drug, the channels were kept at […] ( -10 mV) longer (pulsed for 500 ms) and then stepped back to -120 mV for 10 ms to recover from inactivation into resting or closed state (but the channels that had drug bound to them will not recover from inactivation and will not open) before stepping to -10 mV for 50 ms (pulse 2) to mea sure sodium channels that are available to open. The higher inhibition seen at pulse 2 is due to inactivated state -dependent inhibition. Pulse 1 and 2 are used to investigate drug binding to the open state and inactivated state of the Na channels, respectively. Each concentration of compound is applied for 5 minutes. The results obtained for (R)-32 are summerized in Tables S4–S8.
Table S4. Effect of the (R)-32 on subunit Nav1.1.
Voltage-Gated Sodium channel hNav1.1
(§4) Compound Concentration Measurement % Inhibition
(§5) Data interpretation: Results showing inhibition greater than 50% are considered to represent significant effects of test compound and have been bolded for (R)-32 for better visualization. The studies were carried out in Eurofins Discovery (St. Charles, MO, USA).

[3] = molecular target: T2, Voltage-Gated Sodium channel hNav1.2 (Homo sapiens, UniProt Q99250); assay: human sodium ion channel cell based automated patch clamp assay, hNav1.2
T2 construct: Eurofins Discovery (St. Charles, MO, USA)
Procedure: as §1, §2
as §3, with “S4–S8. […]” for “S4–S8.”
as §4, §5

[4] = molecular target: T3, Voltage-Gated Sodium channel hNav1.3 (Homo sapiens, UniProt Q9NY46); assay: human sodium ion channel cell based automated patch clamp assay, hNav1.3
T3 construct: Eurofins Discovery (St. Charles, MO, USA)
Procedure: as §1, §2
as §3, with “S4–S8. […]” for “S4–S8.”
as §4, §5

[5] = molecular target: T4, Voltage-Gated Sodium channel hNav1.6 (Homo sapiens, UniProt Q9UQD0); assay: human sodium ion channel cell based automated patch clamp assay, hNav1.6
T4 construct: Eurofins Discovery (St. Charles, MO, USA)
Procedure: as §1, §2
as §3, with “S4–S8. […]” for “S4–S8.”
as §4, §5

[6] = hNav1.1, Pulse 1 (open state), read-out: % Inhibition Mean
[7] = hNav1.1, Pulse 1 (open state), read-out: % Inhibition n1
[8] = hNav1.1, Pulse 1 (open state), read-out: % Inhibition n2
[9] = hNav1.1, Pulse 2 (inactivated state), read-out: % Inhibition Mean
[10] = hNav1.1, Pulse 2 (inactivated state), read-out: % Inhibition n1
[11] = hNav1.1, Pulse 2 (inactivated state), read-out: % Inhibition n2
[12] = hNav1.2, Pulse 1 (open state), read-out: % Inhibition Mean
[13] = hNav1.2, Pulse 1 (open state), read-out: % Inhibition n1
[14] = hNav1.2, Pulse 1 (open state), read-out: % Inhibition n2
[15] = hNav1.2, Pulse 2 (inactivated state), read-out: % Inhibition Mean
[16] = hNav1.2, Pulse 2 (inactivated state), read-out: % Inhibition n1
[17] = hNav1.2, Pulse 2 (inactivated state), read-out: % Inhibition n2
[18] = hNav1.3, Pulse 1 (open state), read-out: % Inhibition Mean
[19] = hNav1.3, Pulse 1 (open state), read-out: % Inhibition n1
[20] = hNav1.3, Pulse 1 (open state), read-out: % Inhibition n2
[21] = hNav1.3, Pulse 2 (inactivated state), read-out: % Inhibition Mean
[22] = hNav1.3, Pulse 2 (inactivated state), read-out: % Inhibition n1
[23] = hNav1.3, Pulse 2 (inactivated state), read-out: % Inhibition n2
[24] = hNav1.6, Pulse 1 (open state), read-out: % Inhibition Mean
[25] = hNav1.6, Pulse 1 (open state), read-out: % Inhibition n1
[26] = hNav1.6, Pulse 1 (open state), read-out: % Inhibition n2
[27] = hNav1.6, Pulse 2 (inactivated state), read-out: % Inhibition Mean
[28] = hNav1.6, Pulse 2 (inactivated state), read-out: % Inhibition n1
[29] = hNav1.6, Pulse 2 (inactivated state), read-out: % Inhibition n2

T4 sequence (Q9UQD0 whole entry): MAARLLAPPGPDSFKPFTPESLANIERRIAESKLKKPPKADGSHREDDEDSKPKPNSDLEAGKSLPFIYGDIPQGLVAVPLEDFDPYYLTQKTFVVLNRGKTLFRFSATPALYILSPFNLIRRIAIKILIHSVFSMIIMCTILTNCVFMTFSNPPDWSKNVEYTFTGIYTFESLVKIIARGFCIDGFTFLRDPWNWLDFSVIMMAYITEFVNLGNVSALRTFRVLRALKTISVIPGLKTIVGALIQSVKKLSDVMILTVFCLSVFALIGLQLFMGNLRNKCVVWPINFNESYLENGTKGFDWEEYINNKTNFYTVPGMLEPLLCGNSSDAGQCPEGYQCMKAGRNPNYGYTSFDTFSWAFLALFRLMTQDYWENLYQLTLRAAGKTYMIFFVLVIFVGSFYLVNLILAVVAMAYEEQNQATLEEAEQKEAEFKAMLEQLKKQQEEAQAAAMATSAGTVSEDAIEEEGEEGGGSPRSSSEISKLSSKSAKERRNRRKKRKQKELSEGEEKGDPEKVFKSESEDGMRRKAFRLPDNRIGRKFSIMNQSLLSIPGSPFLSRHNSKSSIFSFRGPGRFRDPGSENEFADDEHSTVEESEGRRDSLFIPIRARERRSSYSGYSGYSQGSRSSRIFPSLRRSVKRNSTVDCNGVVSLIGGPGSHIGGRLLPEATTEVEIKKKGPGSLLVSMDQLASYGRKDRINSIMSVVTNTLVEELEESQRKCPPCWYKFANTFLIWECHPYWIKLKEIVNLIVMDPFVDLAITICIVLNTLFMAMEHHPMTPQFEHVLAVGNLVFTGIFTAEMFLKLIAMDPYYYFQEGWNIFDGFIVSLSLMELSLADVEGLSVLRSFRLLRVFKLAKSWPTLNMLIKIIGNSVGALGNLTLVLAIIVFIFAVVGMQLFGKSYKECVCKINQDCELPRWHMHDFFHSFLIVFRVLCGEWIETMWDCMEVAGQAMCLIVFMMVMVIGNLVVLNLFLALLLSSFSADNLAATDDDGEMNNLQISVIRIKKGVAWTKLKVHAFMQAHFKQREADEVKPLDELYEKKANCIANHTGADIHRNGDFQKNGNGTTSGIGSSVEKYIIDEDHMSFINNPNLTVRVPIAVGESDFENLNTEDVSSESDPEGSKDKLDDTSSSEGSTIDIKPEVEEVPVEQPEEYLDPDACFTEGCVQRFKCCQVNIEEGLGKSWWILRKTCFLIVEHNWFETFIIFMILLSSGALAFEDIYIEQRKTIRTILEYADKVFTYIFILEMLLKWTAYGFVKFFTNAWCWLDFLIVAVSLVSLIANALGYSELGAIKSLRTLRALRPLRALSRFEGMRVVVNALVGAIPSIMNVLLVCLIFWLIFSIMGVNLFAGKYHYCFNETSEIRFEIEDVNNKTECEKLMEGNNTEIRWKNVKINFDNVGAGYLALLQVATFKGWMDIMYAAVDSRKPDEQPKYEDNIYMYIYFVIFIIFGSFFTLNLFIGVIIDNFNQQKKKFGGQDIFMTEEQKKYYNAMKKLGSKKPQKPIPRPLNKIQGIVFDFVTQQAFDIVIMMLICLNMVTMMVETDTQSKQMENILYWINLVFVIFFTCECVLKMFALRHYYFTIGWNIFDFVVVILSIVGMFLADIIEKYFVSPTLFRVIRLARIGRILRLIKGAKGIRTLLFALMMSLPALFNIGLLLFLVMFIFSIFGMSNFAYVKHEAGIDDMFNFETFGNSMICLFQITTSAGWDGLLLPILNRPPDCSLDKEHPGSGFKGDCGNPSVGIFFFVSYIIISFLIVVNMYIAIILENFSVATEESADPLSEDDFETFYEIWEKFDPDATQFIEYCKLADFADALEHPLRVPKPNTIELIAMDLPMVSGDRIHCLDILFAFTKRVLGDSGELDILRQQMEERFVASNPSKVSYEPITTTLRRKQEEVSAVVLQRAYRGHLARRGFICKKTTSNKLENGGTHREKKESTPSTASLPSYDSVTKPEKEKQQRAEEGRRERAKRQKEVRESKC
T2 sequence (Q99250 whole entry): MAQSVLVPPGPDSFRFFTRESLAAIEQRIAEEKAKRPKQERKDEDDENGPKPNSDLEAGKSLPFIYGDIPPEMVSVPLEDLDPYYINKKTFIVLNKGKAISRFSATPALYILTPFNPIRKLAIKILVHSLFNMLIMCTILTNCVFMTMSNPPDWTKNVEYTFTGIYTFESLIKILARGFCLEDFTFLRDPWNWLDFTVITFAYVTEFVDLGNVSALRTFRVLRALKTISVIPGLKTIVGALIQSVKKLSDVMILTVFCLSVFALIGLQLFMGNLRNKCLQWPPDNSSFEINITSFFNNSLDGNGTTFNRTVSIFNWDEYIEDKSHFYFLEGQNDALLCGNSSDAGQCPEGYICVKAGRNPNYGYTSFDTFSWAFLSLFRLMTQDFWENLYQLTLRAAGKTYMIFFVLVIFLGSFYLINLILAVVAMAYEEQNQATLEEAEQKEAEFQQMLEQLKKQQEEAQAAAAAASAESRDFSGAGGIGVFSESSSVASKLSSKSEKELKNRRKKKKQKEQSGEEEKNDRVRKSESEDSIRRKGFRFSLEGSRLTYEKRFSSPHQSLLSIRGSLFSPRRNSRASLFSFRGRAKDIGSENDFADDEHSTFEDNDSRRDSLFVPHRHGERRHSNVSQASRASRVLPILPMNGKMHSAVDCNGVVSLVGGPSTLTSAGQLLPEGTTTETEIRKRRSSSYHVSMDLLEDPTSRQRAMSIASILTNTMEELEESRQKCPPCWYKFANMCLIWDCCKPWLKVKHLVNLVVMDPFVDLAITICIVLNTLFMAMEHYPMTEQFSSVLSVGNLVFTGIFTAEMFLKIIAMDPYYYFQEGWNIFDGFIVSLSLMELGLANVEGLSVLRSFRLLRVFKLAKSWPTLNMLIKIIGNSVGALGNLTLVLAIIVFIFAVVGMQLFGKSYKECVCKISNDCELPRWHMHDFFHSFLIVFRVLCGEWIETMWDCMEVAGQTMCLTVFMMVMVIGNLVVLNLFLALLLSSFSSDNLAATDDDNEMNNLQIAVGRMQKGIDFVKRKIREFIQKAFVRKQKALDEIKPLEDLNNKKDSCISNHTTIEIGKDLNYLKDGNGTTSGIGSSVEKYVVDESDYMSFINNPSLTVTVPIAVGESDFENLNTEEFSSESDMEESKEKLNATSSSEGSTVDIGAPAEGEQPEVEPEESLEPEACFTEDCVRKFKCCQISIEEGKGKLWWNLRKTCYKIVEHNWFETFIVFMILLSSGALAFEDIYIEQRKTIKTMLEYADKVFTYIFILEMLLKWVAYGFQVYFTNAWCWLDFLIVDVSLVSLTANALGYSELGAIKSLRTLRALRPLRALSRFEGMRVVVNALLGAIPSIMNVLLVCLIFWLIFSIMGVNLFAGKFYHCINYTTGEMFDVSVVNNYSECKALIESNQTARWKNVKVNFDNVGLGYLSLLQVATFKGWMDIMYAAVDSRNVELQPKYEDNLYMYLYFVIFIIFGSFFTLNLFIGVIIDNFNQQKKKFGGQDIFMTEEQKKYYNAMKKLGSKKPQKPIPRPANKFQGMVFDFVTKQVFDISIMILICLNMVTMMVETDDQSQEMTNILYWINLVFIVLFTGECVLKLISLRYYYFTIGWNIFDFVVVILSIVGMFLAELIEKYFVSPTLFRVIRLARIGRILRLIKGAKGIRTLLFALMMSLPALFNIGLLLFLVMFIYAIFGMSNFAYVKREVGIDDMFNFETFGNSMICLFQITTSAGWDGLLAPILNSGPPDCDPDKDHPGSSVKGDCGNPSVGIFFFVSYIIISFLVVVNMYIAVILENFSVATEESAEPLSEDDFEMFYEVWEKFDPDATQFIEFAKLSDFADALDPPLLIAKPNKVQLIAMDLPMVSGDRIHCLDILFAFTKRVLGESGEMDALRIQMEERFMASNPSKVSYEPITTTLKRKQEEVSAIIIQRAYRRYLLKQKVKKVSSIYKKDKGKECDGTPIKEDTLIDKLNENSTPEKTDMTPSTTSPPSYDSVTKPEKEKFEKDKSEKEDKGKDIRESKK

Q: Which ED50 [1] does the source give for `CC(=O)N[C@@H](C(=O)N1CCN(c2cccc(OC(F)(F)F)c2)CC1)c1ccccc1` [(R)-32, (R)-N-(2-Oxo-1-phenyl-2-(4-(3-(trifluoromethoxy)phenyl)piperazin-1-yl)ethyl)acetamide] here?
A: 26.5 mg/kg

Q: And the inhibition at 1 µM [2, 6]?
A: 1.61%

Q: And the inhibition at 1 µM [2, 7]?
A: 2.91%

Q: What about the inhibition at 1 µM [2, 8] of the same compound?
A: 0.31%

Q: And the inhibition at 10 µM [2, 6]?
A: 1.2%

Q: What about the inhibition at 10 µM [2, 7] of the same compound?
A: -0.28%

Q: What about the inhibition at 10 µM [2, 8] of the same compound?
A: 2.68%

Q: What about the inhibition at 100 µM [2, 6] of the same compound?
A: 31%

Q: What about the inhibition at 100 µM [2, 7] of the same compound?
A: 24%

Q: What about the inhibition at 100 µM [2, 8] of the same compound?
A: 38%

Q: What about the inhibition at 1 µM [2, 9] of the same compound?
A: 1.92%

Q: What about the inhibition at 1 µM [2, 10] of the same compound?
A: 1.74%

Q: What about the inhibition at 1 µM [2, 11] of the same compound?
A: 2.11%

Q: And the inhibition at 10 µM [2, 9]?
A: 41.9%

Q: And the inhibition at 10 µM [2, 10]?
A: 45.3%

Q: And the inhibition at 10 µM [2, 11]?
A: 38.6%

Q: And the inhibition at 100 µM [2, 9]?
A: 97.6%

Q: And the inhibition at 100 µM [2, 10]?
A: 97.9%

Q: What about the inhibition at 100 µM [2, 11] of the same compound?
A: 97.4%

Q: What about the inhibition at 1 µM [3, 12] of the same compound?
A: 0.79%

Q: And the inhibition at 1 µM [3, 13]?
A: 1.86%

Q: What about the inhibition at 1 µM [3, 14] of the same compound?
A: -0.29%

Q: And the inhibition at 10 µM [3, 12]?
A: 3.6%

Q: And the inhibition at 10 µM [3, 13]?
A: 2.03%

Q: What about the inhibition at 10 µM [3, 14] of the same compound?
A: 5.18%

Q: What about the inhibition at 100 µM [3, 12] of the same compound?
A: 33.5%

Q: And the inhibition at 100 µM [3, 13]?
A: 35.7%

Q: And the inhibition at 100 µM [3, 14]?
A: 31.3%

Q: What about the inhibition at 1 µM [3, 15] of the same compound?
A: 1.62%

Q: What about the inhibition at 1 µM [3, 16] of the same compound?
A: 1.9%

Q: And the inhibition at 1 µM [3, 17]?
A: 1.33%

Q: What about the inhibition at 10 µM [3, 15] of the same compound?
A: 41.9%

Q: And the inhibition at 10 µM [3, 16]?
A: 45.5%

Q: And the inhibition at 10 µM [3, 17]?
A: 38.2%

Q: And the inhibition at 100 µM [3, 15]?
A: 100%

Q: And the inhibition at 100 µM [3, 16]?
A: 100%

Q: And the inhibition at 100 µM [3, 17]?
A: 100%

Q: What about the inhibition at 1 µM [4, 18] of the same compound?
A: -3.38%

Q: What about the inhibition at 1 µM [4, 19] of the same compound?
A: -7.33%

Q: What about the inhibition at 1 µM [4, 20] of the same compound?
A: 0.56%

Q: What about the inhibition at 10 µM [4, 18] of the same compound?
A: -3.18%

Q: What about the inhibition at 10 µM [4, 19] of the same compound?
A: -8.46%

Q: And the inhibition at 10 µM [4, 20]?
A: 2.11%

Q: What about the inhibition at 100 µM [4, 18] of the same compound?
A: 6.75%

Q: What about the inhibition at 100 µM [4, 19] of the same compound?
A: 5.68%

Q: And the inhibition at 100 µM [4, 20]?
A: 7.82%

Q: And the inhibition at 1 µM [4, 21]?
A: -2.78%

Q: What about the inhibition at 1 µM [4, 22] of the same compound?
A: -5.59%

Q: And the inhibition at 1 µM [4, 23]?
A: 0.03%

Q: What about the inhibition at 10 µM [4, 21] of the same compound?
A: 39.5%

Q: And the inhibition at 10 µM [4, 22]?
A: 42.1%

Q: And the inhibition at 10 µM [4, 23]?
A: 37%

Q: And the inhibition at 100 µM [4, 21]?
A: 99.1%

Q: And the inhibition at 100 µM [4, 22]?
A: 99.6%

Q: And the inhibition at 100 µM [4, 23]?
A: 98.6%

Q: And the inhibition at 1 µM [5, 24]?
A: -5.14%

Q: What about the inhibition at 1 µM [5, 25] of the same compound?
A: -8.4%

Q: What about the inhibition at 1 µM [5, 26] of the same compound?
A: -1.89%

Q: And the inhibition at 10 µM [5, 24]?
A: -10.8%

Q: And the inhibition at 10 µM [5, 25]?
A: -14.4%

Q: And the inhibition at 10 µM [5, 26]?
A: -7.25%

Q: And the inhibition at 100 µM [5, 24]?
A: -0.11%

Q: And the inhibition at 100 µM [5, 25]?
A: -1.89%

Q: And the inhibition at 100 µM [5, 26]?
A: 1.68%

Q: What about the inhibition at 1 µM [5, 27] of the same compound?
A: -4.59%

Q: And the inhibition at 1 µM [5, 28]?
A: -10.1%

Q: And the inhibition at 1 µM [5, 29]?
A: 0.93%

Q: And the inhibition at 10 µM [5, 27]?
A: 39.9%

Q: And the inhibition at 10 µM [5, 28]?
A: 53%

Q: What about the inhibition at 10 µM [5, 29] of the same compound?
A: 26.9%

Q: And the inhibition at 100 µM [5, 27]?
A: 108%

Q: What about the inhibition at 100 µM [5, 28] of the same compound?
A: 121%

Q: What about the inhibition at 100 µM [5, 29] of the same compound?
A: 95.2%
